Source: PubChem BioAssay (NCI)
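Step 1: Grow cells in 96-well plates. Step 2: Expose to compound for 48 hours at 5 concentrations. Step 3: Interpolate endpoints linearly; if unreached, use highest concentration. At the TGI there is no net growth.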

Key:
Assay in all cases: NCI anticancer screen, dose series, 48 h
U251 CNS = test system: U251 CNS
HCT-15 colon = test system: HCT-15 colon
HL-60(TB) leukemia = test system: HL-60(TB) leukemia
M19-MEL melanoma = test system: M19-MEL melanoma
SNB-75 CNS = test system: SNB-75 CNS
MOLT-4 leukemia = test system: MOLT-4 leukemia
OVCAR-4 ovarian = test system: OVCAR-4 ovarian
OVCAR-3 ovarian = test system: OVCAR-3 ovarian
HCT-116 colon = test system: HCT-116 colon
SK-MEL-28 melanoma = test system: SK-MEL-28 melanoma
UO-31 renal = test system: UO-31 renal
A549 NSCLC = test system: A549 NSCLC
XF 498 CNS = test system: XF 498 CNS
CCRF-CEM leukemia = test system: CCRF-CEM leukemia
RPMI-8226 leukemia = test system: RPMI-8226 leukemia
SF-539 CNS = test system: SF-539 CNS
DMS 273 small cell lung = test system: DMS 273 small cell lung
SF-295 CNS = test system: SF-295 CNS
OVCAR-5 ovarian = test system: OVCAR-5 ovarian
COLO 205 colon = test system: COLO 205 colon
EKVX NSCLC = test system: EKVX NSCLC
KM12 colon = test system: KM12 colon
OVCAR-8 ovarian = test system: OVCAR-8 ovarian
SK-OV-3 ovarian = test system: SK-OV-3 ovarian
IGROV1 ovarian = test system: IGROV1 ovarian
HOP-92 NSCLC = test system: HOP-92 NSCLC
SN12C renal = test system: SN12C renal
HT29 colon = test system: HT29 colon
HOP-62 NSCLC = test system: HOP-62 NSCLC
KM20L2 colon = test system: KM20L2 colon
SW-620 colon = test system: SW-620 colon
SR leukemia = test system: SR leukemia
MALME-3M melanoma = test system: MALME-3M melanoma
SK-MEL-2 melanoma = test system: SK-MEL-2 melanoma
ACHN renal = test system: ACHN renal
DLD-1 colon = test system: DLD-1 colon
SF-268 CNS = test system: SF-268 CNS
UACC-257 melanoma = test system: UACC-257 melanoma
NCI-H226 lung = test system: NCI-H226 lung
NCI-H522 lung = test system: NCI-H522 lung
SNB-78 CNS = test system: SNB-78 CNS
A498 renal = test system: A498 renal
CAKI-1 renal = test system: CAKI-1 renal
UACC-62 melanoma = test system: UACC-62 melanoma
786-0 renal = test system: 786-0 renal
DMS 114 small cell lung = test system: DMS 114 small cell lung
SNB-19 CNS = test system: SNB-19 CNS
HOP-18 NSCLC = test system: HOP-18 NSCLC
TK-10 renal = test system: TK-10 renal
K-562 leukemia = test system: K-562 leukemia
LXFL 529 NSCLC = test system: LXFL 529 NSCLC
SK-MEL-5 melanoma = test system: SK-MEL-5 melanoma
M14 melanoma = test system: M14 melanoma
NCI-H23 lung = test system: NCI-H23 lung
NCI-H460 lung = test system: NCI-H460 lung
RXF 393 renal = test system: RXF 393 renal
LOX IMVI melanoma = test system: LOX IMVI melanoma
HCC-2998 colon = test system: HCC-2998 colon

For Oc1ccc(-c2nc(=S)[nH][nH]2)cc1, the TGI (U251 CNS) was > 100 µM, the TGI (HCT-15 colon) was > 100 µM and the TGI (HL-60(TB) leukemia) was > 100 µM. For the same compound, the TGI (M19-MEL melanoma) was > 100 µM, the TGI (SNB-75 CNS) was > 100 µM and the TGI (MOLT-4 leukemia) was > 100 µM. The TGI (OVCAR-4 ovarian) was > 100 µM, the TGI (OVCAR-3 ovarian) was > 100 µM and the TGI (HCT-116 colon) was > 100 µM. For the same compound, the TGI (SK-MEL-28 melanoma) was > 100 µM, the TGI (UO-31 renal) was > 100 µM and the TGI (A549 NSCLC) was > 100 µM. For the same compound, the TGI (XF 498 CNS) was > 100 µM, the TGI (CCRF-CEM leukemia) was > 100 µM and the TGI (RPMI-8226 leukemia) was > 100 µM. For the same compound, the TGI (SF-539 CNS) was > 100 µM, the TGI (DMS 273 small cell lung) was > 100 µM and the TGI (SF-295 CNS) was > 100 µM. For the same compound, the TGI (OVCAR-5 ovarian) was > 100 µM, the TGI (COLO 205 colon) was > 100 µM and the TGI (EKVX NSCLC) was > 100 µM. The TGI (KM12 colon) was > 100 µM, the TGI (OVCAR-8 ovarian) was > 100 µM and the TGI (SK-OV-3 ovarian) was > 100 µM. For the same compound, the TGI (IGROV1 ovarian) was > 100 µM, the TGI (HOP-92 NSCLC) was > 100 µM and the TGI (SN12C renal) was > 100 µM. For the same compound, the TGI (HT29 colon) was > 100 µM, the TGI (HOP-62 NSCLC) was > 100 µM and the TGI (KM20L2 colon) was > 100 µM. The TGI (SW-620 colon) was > 100 µM, the TGI (SR leukemia) was > 100 µM and the TGI (MALME-3M melanoma) was > 100 µM. For the same compound, the TGI (SK-MEL-2 melanoma) was > 100 µM, the TGI (ACHN renal) was > 100 µM and the TGI (DLD-1 colon) was > 100 µM. The TGI (SF-268 CNS) was > 100 µM, the TGI (UACC-257 melanoma) was > 100 µM and the TGI (NCI-H226 lung) was > 100 µM. The TGI (NCI-H522 lung) was > 100 µM, the TGI (SNB-78 CNS) was > 100 µM and the TGI (A498 renal) was > 100 µM. The TGI (CAKI-1 renal) was > 100 µM, the TGI (UACC-62 melanoma) was > 100 µM and the TGI (786-0 renal) was > 100 µM. For the same compound, the TGI (DMS 114 small cell lung) was > 100 µM, the TGI (SNB-19 CNS) was > 100 µM and the TGI (HOP-18 NSCLC) was > 100 µM. For the same compound, the TGI (TK-10 renal) was > 100 µM, the TGI (K-562 leukemia) was > 100 µM and the TGI (LXFL 529 NSCLC) was > 100 µM. For the same compound, the TGI (SK-MEL-5 melanoma) was > 100 µM, the TGI (M14 melanoma) was > 100 µM and the TGI (NCI-H23 lung) was > 100 µM. The TGI (NCI-H460 lung) was > 100 µM.
For C[Si](C)(c1ccccc1)C1CC(=O)CC(=O)C1, the TGI (U251 CNS) was > 100 µM, the TGI (HCT-15 colon) was > 100 µM and the TGI (RXF 393 renal) was > 100 µM. For the same compound, the TGI (HL-60(TB) leukemia) was 43.3 µM, the TGI (M19-MEL melanoma) was > 100 µM and the TGI (SNB-75 CNS) was > 100 µM. The TGI (MOLT-4 leukemia) was > 100 µM, the TGI (OVCAR-4 ovarian) was > 100 µM and the TGI (OVCAR-3 ovarian) was > 100 µM. The TGI (HCT-116 colon) was > 100 µM, the TGI (SK-MEL-28 melanoma) was > 100 µM and the TGI (UO-31 renal) was 37.6 µM. For the same compound, the TGI (A549 NSCLC) was > 100 µM, the TGI (XF 498 CNS) was > 100 µM and the TGI (CCRF-CEM leukemia) was > 100 µM. For the same compound, the TGI (RPMI-8226 leukemia) was > 100 µM, the TGI (SF-539 CNS) was 34.4 µM and the TGI (DMS 273 small cell lung) was > 100 µM. For the same compound, the TGI (SF-295 CNS) was > 100 µM, the TGI (OVCAR-5 ovarian) was > 100 µM and the TGI (COLO 205 colon) was > 100 µM. For the same compound, the TGI (EKVX NSCLC) was > 100 µM, the TGI (KM12 colon) was > 100 µM and the TGI (OVCAR-8 ovarian) was > 100 µM. The TGI (SK-OV-3 ovarian) was > 100 µM, the TGI (IGROV1 ovarian) was 48.3 µM and the TGI (SN12C renal) was > 100 µM. For the same compound, the TGI (LOX IMVI melanoma) was 42.5 µM, the TGI (HT29 colon) was > 100 µM and the TGI (HOP-62 NSCLC) was > 100 µM. For the same compound, the TGI (KM20L2 colon) was > 100 µM, the TGI (SW-620 colon) was > 100 µM and the TGI (SR leukemia) was > 100 µM. The TGI (MALME-3M melanoma) was > 100 µM, the TGI (SK-MEL-2 melanoma) was > 100 µM and the TGI (ACHN renal) was > 100 µM. The TGI (DLD-1 colon) was > 100 µM, the TGI (SF-268 CNS) was > 100 µM and the TGI (UACC-257 melanoma) was > 100 µM. For the same compound, the TGI (NCI-H226 lung) was > 100 µM, the TGI (NCI-H522 lung) was 60.8 µM and the TGI (HCC-2998 colon) was > 100 µM. For the same compound, the TGI (SNB-78 CNS) was > 100 µM, the TGI (CAKI-1 renal) was > 100 µM and the TGI (UACC-62 melanoma) was > 100 µM. For the same compound, the TGI (786-0 renal) was 49.9 µM, the TGI (DMS 114 small cell lung) was > 100 µM and the TGI (SNB-19 CNS) was > 100 µM. For the same compound, the TGI (HOP-18 NSCLC) was > 100 µM, the TGI (TK-10 renal) was > 100 µM and the TGI (K-562 leukemia) was > 100 µM. For the same compound, the TGI (LXFL 529 NSCLC) was > 100 µM, the TGI (SK-MEL-5 melanoma) was > 100 µM and the TGI (M14 melanoma) was > 100 µM. For the same compound, the TGI (NCI-H23 lung) was > 100 µM and the TGI (NCI-H460 lung) was > 100 µM.
